Laboratory results taken from patent publication US7794760B2, “Herbal mixture extract of Pleurotus eryngii, Acanthopanacis Cortex and Notoginseng Radix and a composition comprising the same for prevention and treatment of periodontitis” (Oscotec Inc., priority 2005, dated 2010).

Tested on: OPG (osteoprotegerin)
Assay: OPG (osteoprotegerin) expression in MG-63 cells, OPG ELISA of supernatant
Type: cell-based, human
Details: positive control, 20 mM
Protocol: The following three types of cells were used to investigate the effect of the herbal mixture extract or each independent herbal extract of the present invention on the proliferation of osteoblasts. A human osteosarcoma derived cell line MG-63 (ATCC No, CRL-1427) and a mouse muscle derived cell line C2C12 (ATCC No. CRL-1772) were distributed from American Type Culture Collection (ATCC, USA). The cells were cultured in DMEM (Gibco, BRL, USA) supplemented with 10% FBS (fetal bovine serum) in a 37° C. 5% CO2 incubator with 100% humidity.
MG-63 cell culture medium having approximately at the density of 10^6 cells/20 ml was removed from 100 mm cell culture dish. The dish was washed with 5 ml of DPBS (Dulbeco's modified phosphate buffered saline). The buffer was removed and 0.5 ml of trypsin-EDTA was spread on the culture dish, which stood in a CO2 incubator for one minute to take the cells off. The cells were put in 5 ml of DMEM supplemented with 10% FBS and mixed well. […] The numbers of cells were counted by haemacytometer and then distributed into a96-well plate at the concentration of 10^4 cells/well. […]
To increase reliability of the test results, positive control was treated with 20 mM CaCl2 to induce 2˜5 fold higher expression of OPG than in negative control. […] OPG ELISA kit (OCT) was used and optical density was measured at 450 nm. […]

[Ca+2].[Cl-].[Cl-] [CaCl2]
expression of OPG versus negative control: 2˜5 fold
